Test results reported in article PMC10071561, “Conformation-dependent ligand hot spots in the spliceosomal RNA helicase BRR2” (Acta Crystallographica. Section D, Structural Biology, 2023).
Where two headings read alike, the source gives them in different places. Blank lines part the entries; values can stand above or below the compound they belong to.

Key:
[1] = molecular target: T1, hBRR2 (spliceosomal RNA helicase BRR2) (Homo sapiens, UniProt O75643); experiment: crystal soaking, X-ray structure ([…] Å); also U4/U6 unwinding inhibition; format: biochemical; design: gene SNRNP200; hBRR2T1 (residues 395-2129), N-terminal His tag not cleaved, baculovirus/High Five insect cells; isolated, without hJab1deltaC, in U4*/U6 unwinding assay
[2] = molecular target: T1, hBRR2 (spliceosomal RNA helicase BRR2); experiment: as above; format: biochemical; design: gene SNRNP200; hBRR2T1 (residues 395-2129), N-terminal His tag not cleaved, baculovirus/High Five insect cells; isolated, without hJab1deltaC, in U4*/U6 unwinding assay; remark: listed apart in the source
[3] = molecular target: T1, hBRR2 (spliceosomal RNA helicase BRR2); experiment: co-crystal structure (X-ray, […] Å); format: binding; design: gene SNRNP200; hBRR2T1, residues 395-2129

T1 sequence (O75643 395-2129): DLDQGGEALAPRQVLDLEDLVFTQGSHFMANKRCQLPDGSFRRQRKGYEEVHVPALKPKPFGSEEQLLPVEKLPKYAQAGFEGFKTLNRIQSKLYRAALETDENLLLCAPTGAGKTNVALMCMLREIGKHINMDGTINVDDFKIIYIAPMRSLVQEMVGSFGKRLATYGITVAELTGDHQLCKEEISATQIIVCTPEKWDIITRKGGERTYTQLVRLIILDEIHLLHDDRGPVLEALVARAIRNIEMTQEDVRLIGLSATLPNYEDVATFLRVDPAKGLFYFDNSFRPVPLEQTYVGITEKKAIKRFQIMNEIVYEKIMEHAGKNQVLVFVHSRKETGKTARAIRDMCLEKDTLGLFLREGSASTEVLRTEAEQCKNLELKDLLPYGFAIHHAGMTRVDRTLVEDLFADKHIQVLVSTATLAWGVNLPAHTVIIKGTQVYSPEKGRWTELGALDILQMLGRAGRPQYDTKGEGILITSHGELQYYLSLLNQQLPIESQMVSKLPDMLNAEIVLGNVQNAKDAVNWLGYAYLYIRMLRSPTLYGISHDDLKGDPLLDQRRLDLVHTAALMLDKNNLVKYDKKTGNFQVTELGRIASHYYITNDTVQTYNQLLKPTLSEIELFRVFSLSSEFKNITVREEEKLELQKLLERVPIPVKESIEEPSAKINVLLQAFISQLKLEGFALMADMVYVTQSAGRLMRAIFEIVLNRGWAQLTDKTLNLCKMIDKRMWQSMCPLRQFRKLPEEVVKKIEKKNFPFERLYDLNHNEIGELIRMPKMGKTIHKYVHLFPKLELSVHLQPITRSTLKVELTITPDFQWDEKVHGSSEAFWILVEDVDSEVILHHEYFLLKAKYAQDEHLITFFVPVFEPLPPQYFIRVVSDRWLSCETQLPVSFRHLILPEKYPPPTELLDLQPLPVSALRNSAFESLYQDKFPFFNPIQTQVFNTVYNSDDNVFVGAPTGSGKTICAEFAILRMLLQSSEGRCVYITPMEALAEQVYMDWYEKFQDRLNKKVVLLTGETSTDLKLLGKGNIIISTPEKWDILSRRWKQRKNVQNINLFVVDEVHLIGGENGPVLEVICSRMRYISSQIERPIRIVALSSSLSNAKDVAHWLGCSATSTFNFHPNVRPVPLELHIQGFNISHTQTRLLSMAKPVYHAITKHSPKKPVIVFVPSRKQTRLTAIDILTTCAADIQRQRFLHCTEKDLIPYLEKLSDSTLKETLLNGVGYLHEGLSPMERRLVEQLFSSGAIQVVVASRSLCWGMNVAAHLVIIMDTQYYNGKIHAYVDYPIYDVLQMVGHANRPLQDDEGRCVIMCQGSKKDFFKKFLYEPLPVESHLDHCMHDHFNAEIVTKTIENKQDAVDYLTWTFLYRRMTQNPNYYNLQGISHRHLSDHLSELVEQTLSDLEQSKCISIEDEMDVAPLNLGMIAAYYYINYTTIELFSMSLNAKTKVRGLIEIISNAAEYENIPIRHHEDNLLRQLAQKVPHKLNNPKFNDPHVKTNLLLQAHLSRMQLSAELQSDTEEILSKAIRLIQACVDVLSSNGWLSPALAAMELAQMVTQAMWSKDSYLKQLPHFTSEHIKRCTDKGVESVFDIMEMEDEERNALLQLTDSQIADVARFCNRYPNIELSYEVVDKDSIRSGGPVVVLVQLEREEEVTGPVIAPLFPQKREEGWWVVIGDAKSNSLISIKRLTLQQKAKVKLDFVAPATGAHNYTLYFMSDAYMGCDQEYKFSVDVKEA

IC50 [1]: > 1000 µM
Compound: O=S(=O)(N=C(S)S)c1ccccc1 [compound 50]

IC50 [2]: > 90 µM
Compound: O=S(=O)(NO)c1ccccc1 [compound 24, Piloty's acid]

Compound: [H]/N=C(/N)NS(=O)(=O)c1ccc(N)cc1 [SG, 4-amino-N-(aminoiminomethyl)benzolsulfonamide]
co-crystal structure (X-ray, 2.87 Å) [3]: In this hBRR2^T1 crystal structure, sulfaguanidine is positioned at the interface between the two helicase cassettes
